Assay results from patent publication US20120034613A1, “Apparatus and Method for Testing Relationships Between Gene Expression and Physical Appearance of Skin” (NSE Products, Inc., priority 2010, published 2012).

Test system: EpidermFT™ Skin Model (EFT-400) full thickness skin cultures
Test: Affymetrix GeneChip HG U133 Plus 2.0 microarray global gene expression, agent-exposed vs untreated skin cultures
Format: cell-based, human
Conditions: Salicin 0.5% vs Untreated Control

OCc1ccccc1O[C@@H]1O[C@H](CO)[C@@H](O)[C@H](O)[C@H]1O [Salicin, 2-(Hydroxymethyl)phenyl β-D-glucospyranoside]
Direction KLK1 (216699_s_at) (24 hr): down
Direction KRT5 (201820_at) (24 hr): down
Direction KRT6A (209125_at) (24 hr): down
Direction KRT10 (207023_x_at) (24 hr): down
Direction KRTCAP3 (235148_at) (24 hr): down
Direction LMNA (212089_at) (24 hr): down
Direction LMNA (1554600_s_at) (24 hr): down
Direction LMNB1 (203276_at) (24 hr): down
Direction LOC284837 (1563088_a_at) (24 hr): down
Direction LOC286440 (209733_at) (24 hr): down
Direction LOC400027 (226413_at) (24 hr): down
Direction LOC401233 (1558882_at) (24 hr): down
Direction LOC648245 (227739_at) (24 hr): down
Direction LOC652968 (233528_s_at) (24 hr): down
Direction LOC727820 (227384_s_at) (24 hr): down
Direction LOC100128443 /// MAST4 (210958_s_at) (24 hr): down
Direction LOC100128822 (235174_s_at) (24 hr): down
Direction LOC100130837 (242255_at) (24 hr): down
Direction LOC100131262 (1558152_at) (24 hr): down
Direction LOC100131851 /// LOC100134497 /// LOC401002 /// LOC646674 /// SSBP3 (222482_at) (24 hr): down
Direction LOC100133772 /// SLC16A5 (206600_s_at) (24 hr): down
Direction LOC100134937 (229685_at) (24 hr): down
Direction LPHN1 (47560_at) (24 hr): down
Direction LY75 (205668_at) (24 hr): down
Direction LYSMD4 (228954_at) (24 hr): down
Direction MAFB (218559_s_at) (24 hr): down
Direction MAPRE2 (202501_at) (24 hr): down
Direction MEGF9 (212831_at) (24 hr): down
Direction MFAP5 (213764_s_at) (24 hr): down
Direction MIB2 (226644_at) (24 hr): down
Direction MPP7 (238451_at) (24 hr): down
Direction MTHFR (226929_at) (24 hr): down
Direction MTMR1 (214975_s_at) (24 hr): down
Direction MUC1 (213693_s_at) (24 hr): down
Direction MYO18A /// TIAF1 (202039_at) (24 hr): down
Direction NBEAL2 (212443_at) (24 hr): down
Direction NCF2 (209949_at) (24 hr): down
Direction NCRNA00086 (238697_at) (24 hr): down
Direction PAIP1 (208051_s_at) (24 hr): down
Direction PAIP2B (221868_at) (24 hr): down
Direction PAWR (204005_s_at) (24 hr): down
Direction PAWR (229515_at) (24 hr): down
Direction PDIK1L (227255_at) (24 hr): down
Direction PERP (217744_s_at) (24 hr): down
Direction PIGW (1558292_s_at) (24 hr): down
Direction PLEKHA2 (225136_at) (24 hr): down
Direction PLS3 (201215_at) (24 hr): down
Direction PNMA2 (209598_at) (24 hr): down
Direction POLE2 (205909_at) (24 hr): down
Direction POLH (231115_at) (24 hr): down
Direction POLR3B (219459_at) (24 hr): down
Direction POU3F1 (208345_s_at) (24 hr): down
Direction PPAP2C (209529_at) (24 hr): down
Direction PPP1CB (201409_s_at) (24 hr): down
Direction PPP2CA (208652_at) (24 hr): down
Direction PRDX2 (39729_at) (24 hr): down
Direction PRKX (204061_at) (24 hr): down
Direction PTCH1 (209815_at) (24 hr): down
Direction PTGFR (1555097_a_at) (24 hr): down
Direction PVRL1 (225211_at) (24 hr): down
Direction RAB7B (1553982_a_at) (24 hr): down
Direction RAPGEFL1 (218657_at) (24 hr): down
Direction RHOV (241990_at) (24 hr): down
Direction RICS (203431_s_at) (24 hr): down
Direction RNF170 (226104_at) (24 hr): down
Direction RORA (235567_at) (24 hr): down
Direction RPS6KA5 (204633_s_at) (24 hr): down
Direction RPS6KB2 (203777_s_at) (24 hr): down
Direction SCRN3 (222849_s_at) (24 hr): down
Direction SDCCAG8 (243963_at) (24 hr): down
Direction SEMA4D (203528_at) (24 hr): down
Direction SERPINB1 (213572_s_at) (24 hr): down
Direction SETBP1 (227478_at) (24 hr): down
Direction SHROOM2 (204967_at) (24 hr): down
Direction SLC5A3 (212944_at) (24 hr): down
Direction SLC24A3 (219090_at) (24 hr): down
Direction SLC45A4 (225598_at) (24 hr): down
Direction SLCO3A1 (219229_at) (24 hr): down
Direction SMAP2 (225282_at) (24 hr): down
Direction SMCR7 (235896_s_at) (24 hr): down
Direction SNX21 (1553960_at) (24 hr): down
Direction SNX24 (218705_s_at) (24 hr): down
Direction SORD (201563_at) (24 hr): down
Direction ST8SIA4 (230836_at) (24 hr): down
Direction STK24 (208854_s_at) (24 hr): down
Direction SYNGR2 (201079_at) (24 hr): down
Direction TANC1 (225308_s_at) (24 hr): down
Direction TCEA3 (226388_at) (24 hr): down
Direction TCHP (223455_at) (24 hr): down
Direction TGOLN2 (1554608_at) (24 hr): down
Direction THBD (203888_at) (24 hr): down
Direction TIMM22 (219184_x_at) (24 hr): down
Direction TMC5 (222904_s_at) (24 hr): down
Direction TMEM19 (226860_at) (24 hr): down
Direction TMEM45A (219410_at) (24 hr): down
Direction TMEM50B (225182_at) (24 hr): down
Direction TMEM80 (65630_at) (24 hr): down
Direction TP53I3 (210609_s_at) (24 hr): down
Direction TRAF3IP2 (202987_at) (24 hr): down
Direction TRIM2 (202342_s_at) (24 hr): down
Direction TTC30B (1554588_a_at) (24 hr): down
Direction VPS4B (218171_at) (24 hr): down
Direction WNK1 (39313_at) (24 hr): down
Direction WNK1 (211993_at) (24 hr): down
Direction ZBTB1 (1557036_at) (24 hr): down
Direction ZDHHC21 (241946_at) (24 hr): down
Direction ZFYVE21 (219929_s_at) (24 hr): down
Direction ZHX1 (223213_s_at) (24 hr): down
Direction ZHX1 (223214_s_at) (24 hr): down
Direction ZNF85 (1554445_at) (24 hr): down
Direction ZNF561 (235200_at) (24 hr): down
Direction ZNF589 (219968_at) (24 hr): down
Direction ZNF823 (229732_at) (24 hr): down
Direction ABHD2 (205566_at) (24 hr treatment): up
